The record followed here is patent publication US20190185479A1, “BICYCLIC NITROGENATED HETEROCYCLIC COMPOUND” (MITSUBISHI TANABE PHARMA CORPORATION, priority 2016, published 2019).

One experiment has as its target T1, hPDE8B (Homo sapiens, UniProt O95263).
T1 construct: purchased SB Drug Discovery
Description: PDE8 inhibition assay (IC50), Experimental Example 3. The following applies: at 10 μmol/L; read-out: inhibition rate (%) at prescribed concentration, PDE8. In kind it is biochemical. Here is the method:
(§1) PDE7 inhibitory assay was carried out by reacting the mixture of a compound, hPDE7B, and cAMP, and measuring the residual cAMP by a detection method using LANCE (registered trademark) Ultra cAMP Detection Kit (ParkinElmer). The compound was dissolved in DMSO, and diluted so that the concentration would become 50 times of the final concentration. The hPDE7B and cAMP were diluted with an assay buffer (50 mmol/L Tris-HCl, 1 mmol/L MgCl2, 0.1% BSA, 0.5 mmol/L DTT, pH7.5) so that the hPDE7B would have an appropriate enzyme activity and the concentration of cAMP would become 6 nmol/L. To a 96 well plate were added the compound (2 μL) (DMSO final concentration: 2%), hPDE7B (48 μL), and cAMP (50 μL) (concentration at the reaction: 3 nmol/L), and the resulting mixture was reacted at room temperature for 60 minutes. The reaction solution (20 μL) was subjected to a TR-FRET method according to the protocol specified by the kit to measure the concentration of the residual cAMP. In the assay, to a tracer solution specified by the kit was added 0.5 mmol/L of 3-isobutyl-1-methylxanthine (IBMX, nonselective PDE inhibitor) in order to stop the PDE enzyme reaction after the completion of reaction until the measurement.
The prediction of PDE7 selectivity was evaluated by comparing each IC50 value of a compound against PDE4, 8, and 10 with the IC50 value of said compound against PDE7B.
hPDE4D, hPDE8B, and hPDE10A were prepared by the same method as [Method for preparing samples 2].
PDE4, 8, and 10 inhibitory assays were carried out by the same method as [Assay procedure 1].
The reaction without a compound wad defined as “0% inhibition”, the reaction without each PDE was defined as “100% inhibition”, and the calculation of IC50 value was carried out by the same method as <Method for data calculation 1>.

Another experiment concerns the target T2, Human PDE7B (hPDE7B) (Homo sapiens, UniProt Q9NP56).
T2 construct: made in house; host or cells: COS-7 cells
The experiment can be described thus: Measurement of PDE7 inhibitory activity (Experimental Example 1; residual cAMP, LANCE Ultra cAMP TR-FRET). The experiment is classed as biochemical. The conditions noted are these: cAMP 3 nmol/L, room temperature 60 minutes. On the procedure:
Human PDE7B (hPDE7B) was isolated from COS-7 cells transfected with plasmids encoding hPDE7B according to the method described in a reference, Biochemical and Biophysical Research Communication, 271, p. 575-583 (2000). The resulting enzyme solution was used in the PDE assay.
as §1
The reaction without a compound was defined as “0% inhibition”, the reaction without hPDE7B was defined as “100% inhibition”, and the inhibition rate of the compound was calculated by the following equation.
Inhibition rate of compound (%)={(Residual cAMP concentration at the addition of compound−Residual cAMP concentration in 0% inhibition)/(Residual cAMP concentration in 100% inhibition−Residual cAMP concentration in 0% inhibition)}×100

Where a name gives a salt, the structure may show the parent alone.

T2 sequence (Q9NP56 whole entry): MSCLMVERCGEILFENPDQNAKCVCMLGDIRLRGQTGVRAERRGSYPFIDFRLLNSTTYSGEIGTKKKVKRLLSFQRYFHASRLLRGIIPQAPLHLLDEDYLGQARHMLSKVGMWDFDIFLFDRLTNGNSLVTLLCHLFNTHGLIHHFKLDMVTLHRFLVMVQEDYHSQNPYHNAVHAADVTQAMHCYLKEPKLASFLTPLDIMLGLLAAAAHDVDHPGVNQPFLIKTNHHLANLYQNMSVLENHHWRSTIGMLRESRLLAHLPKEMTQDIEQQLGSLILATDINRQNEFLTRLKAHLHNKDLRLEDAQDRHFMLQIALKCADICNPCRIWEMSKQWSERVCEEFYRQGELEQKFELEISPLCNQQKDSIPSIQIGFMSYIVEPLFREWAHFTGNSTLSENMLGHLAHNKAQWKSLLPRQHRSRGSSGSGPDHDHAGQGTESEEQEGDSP
T1 sequence (O95263 whole entry): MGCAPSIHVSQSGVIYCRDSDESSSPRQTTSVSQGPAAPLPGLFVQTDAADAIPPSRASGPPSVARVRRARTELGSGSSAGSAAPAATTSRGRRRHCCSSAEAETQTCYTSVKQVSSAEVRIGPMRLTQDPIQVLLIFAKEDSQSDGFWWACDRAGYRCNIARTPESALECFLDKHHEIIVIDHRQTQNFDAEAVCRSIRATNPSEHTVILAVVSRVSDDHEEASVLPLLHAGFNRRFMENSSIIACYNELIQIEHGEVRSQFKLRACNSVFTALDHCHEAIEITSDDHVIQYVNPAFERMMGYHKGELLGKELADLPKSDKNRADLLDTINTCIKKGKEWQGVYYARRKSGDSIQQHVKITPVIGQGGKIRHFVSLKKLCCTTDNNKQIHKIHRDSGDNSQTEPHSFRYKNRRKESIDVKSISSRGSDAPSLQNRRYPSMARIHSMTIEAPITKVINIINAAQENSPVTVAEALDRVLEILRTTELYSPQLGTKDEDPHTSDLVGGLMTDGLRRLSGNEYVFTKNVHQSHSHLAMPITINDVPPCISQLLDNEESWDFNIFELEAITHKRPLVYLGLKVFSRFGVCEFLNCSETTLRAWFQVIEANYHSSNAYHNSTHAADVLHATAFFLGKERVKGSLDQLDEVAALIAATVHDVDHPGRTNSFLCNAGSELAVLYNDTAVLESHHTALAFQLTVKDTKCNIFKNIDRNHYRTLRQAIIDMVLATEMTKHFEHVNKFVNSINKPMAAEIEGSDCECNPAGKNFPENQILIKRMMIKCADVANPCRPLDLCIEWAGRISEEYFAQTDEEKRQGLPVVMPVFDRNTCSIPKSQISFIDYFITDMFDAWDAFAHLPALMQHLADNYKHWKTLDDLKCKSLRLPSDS

`CC1(n2nnc3c(N)ncnc32)CCCCC1` [Example 7]: the inhibition at 10 µM at hPDE8B amounted to 50%. Besides, at Human PDE7B (hPDE7B), the IC50 worked out at 560 nM. At Human PDE7B (hPDE7B), `C[C@@H](c1ccc(F)cc1)n1nnc2c(N)ncnc21` [Example 16] registered an IC50 of 350 nM. For `Nc1nccn2c(C3CCC3)nnc12` [Example 18], the IC50 on Human PDE7B (hPDE7B) was found to be 460 nM.

`C=C1CC(c2nnc3c(N)nccn23)C1` [Example 19, 3-(3-methylenecyclobutyl)-[1,2,4]triazolo[4,3-a]pyrazin-8-amine] registered an IC50 against Human PDE7B (hPDE7B) of 240 nM. Same read-out and setting: under `C[C@H]1CCCCN1c1nnc2c(N)nccn12` [Example 21, 3-(2-methylpiperidin-1-yl) [1,2,4]triazolo[4,3-a]pyrazin-8-amine] stands 90 nM; under `CCC1CCCN(c2nnc3c(N)nccn23)C1` (centres unmarked) [Example 25], 190 nM.

`Nc1nccn2c(N3CCCC(F)C3)nnc12` (centres unmarked) [Example 27] gave an IC50 on Human PDE7B (hPDE7B) of 320 nM. Consider `Nc1nccn2c(N3CCCCCCC3)nnc12` [Example 30], for which the IC50 on Human PDE7B (hPDE7B) turned out to be 390 nM. On Human PDE7B (hPDE7B), `Nc1nccn2c(N3C[C@H]4C[C@H]4C3)nnc12` [Example 31] registered an IC50 of 480 nM.

Molecule `Nc1ncnc2c1nnn2C1CCCc2ccccc21` (centres unmarked) [Example 33] displayed an IC50 on Human PDE7B (hPDE7B) of 520 nM. `Nc1ncnc2c1nnn2C1CCc2ccccc2C1` (centres unmarked) [Example 34] gave an IC50 against Human PDE7B (hPDE7B) of 460 nM. For the molecule `Nc1ncnc2c1nnn2C1CCC1` [Example 35], on Human PDE7B (hPDE7B), the IC50 came out at 200 nM. Molecule `CC1(C)CCCCN1c1nnc2c(N)nccn12` [Example 36, 3-(2,2-dimethylpiperidin-1-yl)-[1,2,4]triazolo[4,3-a]pyrazin-8-amine] registered an IC50 at Human PDE7B (hPDE7B) of 380 nM. Same read-out and setting: under `CC(C)C1CCCCN1c1nnc2c(N)nccn12` (centres unmarked) [Example 37] stands 490 nM; under `Nc1nccn2c(N3CCCCC3C(F)(F)F)nnc12` (centres unmarked) [Example 39], 220 nM. On the same count and under the same terms, under `Nc1nccn2c(N3CCCCC3Cc3ccccc3)nnc12` (centres unmarked) [Example 40] stands 730 nM; under `Nc1nccn2c(N3CCCCC3c3ccccc3)nnc12` (centres unmarked) [Example 41], 290 nM.

Regarding `Nc1nccn2c(N3CCCC4(CCCC4)C3)nnc12` [Example 45], the IC50 against Human PDE7B (hPDE7B) amounted to 210 nM.

In turn, `Nc1nccn2c(N3CCCC(F)(F)C3)nnc12` [Example 47] showed an IC50 at Human PDE7B (hPDE7B) of 300 nM. On the same count and under the same terms, under `Nc1nccn2c(N3CCCC(c4ccccc4)C3)nnc12` (centres unmarked) [Example 49] stands 260 nM; under `CCC1CCN(c2nnc3c(N)nccn23)CC1` [Example 50], 520 nM; under `CC1(C)CCN(c2nnc3c(N)nccn23)CC1` [Example 51], 110 nM.

On Human PDE7B (hPDE7B), `C[C@@H]1CCC[C@@H](C)N1c1nnc2c(N)nccn12` [Example 63] came in with an IC50 of 304 nM. In the case of `C[C@H]1CCC[C@H](C)N1c1nnc2c(N)nccn12` [Example 64], it took 107 nM to reach half-maximal inhibition at Human PDE7B (hPDE7B) (IC50). In the case of `Nc1nccn2c(N3C4CCC3CC4)nnc12` [Example 66], on Human PDE7B (hPDE7B), the IC50 stood at 360 nM. Regarding `Nc1nccn2c(N3CCC4(CC3)CC4)nnc12` [Example 78], on Human PDE7B (hPDE7B), the IC50 was found to be 140 nM. Take `CC1(C)CCCN(c2nnc3c(N)ncc(-c4ccccc4)n23)C1` [Example 81]: half-maximal inhibition at Human PDE7B (hPDE7B) (IC50) was put at 160 nM.

On to `Nc1nccn2c(C3CC(F)(F)C3)nnc12` [Example 84, 3-(3,3-difluorocyclobutyl)-[1,2,4]triazolo[4,3-a]pyrazin-8-amine], for which the IC50 at Human PDE7B (hPDE7B) was determined as 730 nM. `Nc1ncnc2c1nnn2C1CCCCC1` [Example 85, 3-cyclohexyl-3H-[1,2,3]triazolo[4,5-d]pyrimidin-7-amine hydrochloride]: the IC50 at Human PDE7B (hPDE7B) is 40 nM.

As to `Nc1ncnc2c1nnn2[C@@H]1CCCC(F)(F)C1` [Example 88], the IC50 against Human PDE7B (hPDE7B) was 840 nM. On the same count and under the same terms, under `Nc1ncnc2c1nnn2[C@H]1CCCOC1` [Example 91] stands 360 nM. `CCOc1nc(N)c2nnn(C3CCCCC3)c2n1` [Example 93, 3-cyclohexyl-5-ethoxy-3H-[1,2,3]triazolo[4,5-d]pyrimidin-7-amine] had an IC50 on Human PDE7B (hPDE7B) of 20 nM.

Molecule `Nc1ncnc2c1nnn2[C@H]1CC[C@@H](C(F)(F)F)CC1` [Example 102] showed an IC50 against Human PDE7B (hPDE7B) of 250 nM.

For the molecule `Nc1ncnc2c1nnn2[C@H]1CC[C@H](C(F)(F)F)CC1` [Example 103], at Human PDE7B (hPDE7B), half-maximal inhibition (IC50) was put at 450 nM. `C[C@@H]1C[C@H](C)C[C@@H](n2nnc3c(N)ncnc32)C1` [Example 105] gave an IC50 against Human PDE7B (hPDE7B) of 310 nM. At Human PDE7B (hPDE7B), `CC1CC(n2nnc3c(N)ncnc32)CC(C)(C)C1` (centres unmarked) [Example 108] gave an IC50 of 230 nM. On the same count and under the same terms, under `Nc1ncnc2c1nnn2C1CCCCC1F` (centres unmarked) [Example 112] stands 170 nM. For `COC1CCCCC1n1nnc2c(N)ncnc21` (centres unmarked) [Example 116], on Human PDE7B (hPDE7B), half-maximal inhibition (IC50) required 380 nM.

As for `CCC1CCCC(n2nnc3c(N)ncnc32)C1` (centres unmarked) [Example 117], the IC50 against Human PDE7B (hPDE7B) was determined as 80 nM. On the same count and under the same terms, under `Nc1ncnc2c1nnn2C1CCCC(C(F)F)C1` (centres unmarked) [Example 119] stands 20 nM; under `Nc1ncnc2c1nnn2C1CCCC(CC(F)(F)F)C1` (centres unmarked) [Example 120], 380 nM; under `COC1CCCC(n2nnc3c(N)ncnc32)C1` (centres unmarked) [Example 121], 870 nM. On the same count and under the same terms, under `COC1CCCC(n2nnc3c(N)ncnc32)C1` (centres unmarked) [Example 123] stands 420 nM. As for `Nc1ncnc2c1nnn2C1CCCC(CO)C1` (centres unmarked) [Example 124], the IC50 at Human PDE7B (hPDE7B) was 260 nM. Same read-out and setting: under `Cc1cnc(C2CCCC(n3nnc4c(N)ncnc43)C2)s1` (centres unmarked) [Example 127] stands 730 nM; under `Cc1ccc(F)c(-n2nnc3c(N)ncnc32)c1` [Example 129], 750 nM. `Nc1ncnc2c1nnn2-c1cccc(C(F)(F)F)c1` [Example 130] yielded an IC50 against Human PDE7B (hPDE7B) of 490 nM. `Nc1ncnc2c1nnn2-c1cccc(C(=O)NCc2ccccc2)c1` [Example 131] returned an IC50 against Human PDE7B (hPDE7B) of 250 nM. On to `CC(C)[C@@H]1CC[C@@H](C)[C@@H](n2nnc3c(N)ncnc32)C1` [Example 132, 3-[(1S,2R,5R)-2-methyl-5-(propan-2-yl)cyclohexyl]-3H-[1,2,3]triazolo[4,5-d]pyrimidin-7-amine], for which, on Human PDE7B (hPDE7B), the IC50 turned out to be 670 nM. Turning to `CC1CC(c2nnc3c(N)nccn23)C1` (centres unmarked) [Example 133, 3-(3-methylcyclobutyl)-[1,2,4]triazolo[4,3-a]pyrazin-8-amine], on Human PDE7B (hPDE7B), the IC50 was 160 nM. Take `CC(C)[C@H]1CC[C@H](C)[C@H](n2nnc3c(N)ncnc32)C1` [Example 134, 3-[(1R,2S,5S)-2-methyl-5-(propan-2-yl)cyclohexyl]-3H-[1,2,3]triazolo[4,5-d]pyrimidin-7-amine]: 330 nM corresponded to half-maximal inhibition at Human PDE7B (hPDE7B) (IC50).

`Nc1ncnc2c1nnn2[C@@H]1CCCN(c2ccccc2)C1` [Example 136, 3-[(3R)-1-phenylpiperidin-3-yl]-3H-[1,2,3]triazolo[4,5-d]pyrimidin-7-amine] had an IC50 against Human PDE7B (hPDE7B) of 680 nM.

As for `Nc1ncnc2c1nnn2[C@H]1CCCN(Cc2ccccc2)C1` [Example 138, 3-[(3S)-1-benzylpiperidin-3-yl]-3H-[1,2,3]triazolo[4,5-d]pyrimidin-7-amine], half-maximal inhibition at Human PDE7B (hPDE7B) (IC50) required 340 nM. On to `Nc1ncnc2c1nnn2-c1cccc(OCc2ccccc2)c1` [Example 139, 3-[3-(benzyloxy)phenyl]-3H-[1,2,3]triazolo[4,5-d]pyrimidin-7-amine], for which, on Human PDE7B (hPDE7B), the IC50 was determined as 90 nM. For `Nc1nccn2c(C3CCCC(C(F)(F)F)C3)nnc12` (centres unmarked) [Example 147], half-maximal inhibition at Human PDE7B (hPDE7B) (IC50) required 700 nM. On to `Nc1nccn2c(C3CCC(F)(F)CC3)nnc12` [Example 150], for which the IC50 against Human PDE7B (hPDE7B) is 130 nM. Same read-out and setting: under `CC1CC(c2nnc3c(N)nccn23)CC(F)(F)C1` (centres unmarked) [Example 154] stands 110 nM; under `Nc1nccn2c(C3CC(C(F)(F)F)CC(F)(F)C3)nnc12` (centres unmarked) [Example 157], 920 nM; under `Nc1nccn2c(C3CCC4CC4C3)nnc12` (centres unmarked) [Example 158, 3-(bicyclo[4.1.0]hept-3-yl) [1,2,4]triazolo[4,3-a]pyrazin-8-amine], 70 nM.

In the case of `Nc1nccn2c([C@@H]3C[C@@H]4CC[C@H]3C4)nnc12` [Example 162], 170 nM corresponded to half-maximal inhibition against Human PDE7B (hPDE7B) (IC50).

The molecule `Nc1nccn2c(CC3CCCCC3)nnc12` [Example 165] yielded an IC50 at Human PDE7B (hPDE7B) of 360 nM.

On Human PDE7B (hPDE7B), `Nc1nccn2c(C3CCCCO3)nnc12` (centres unmarked) [Example 168] registered an IC50 of 440 nM. Turning to `Nc1nccn2c(-c3ccccc3)nnc12` [Example 170], the IC50 against Human PDE7B (hPDE7B) was 270 nM. In the case of `Nc1nccn2c([C@@H]3CCCC(F)(F)C3)nnc12` [Example 213, 3-(3,3-difluorocyclohexyl) [1,2,4]triazolo[4,3-a]pyrazin-8-amine], the IC50 against Human PDE7B (hPDE7B) was 330 nM.
